{"source": "patent US6319678A", "about": "“Process for glucuronidation screening” (PanVera Corporation, priority 1999, dated 2001)", "key": {"[1]": {"conditions": "background; cited from earlier work"}, "[2]": {"conditions": "background; cited from earlier work", "remark": "listed apart in the source"}, "UGT1A1": {"system": "UGT1A1", "conditions": "as in patients with Gilbert's syndrome; background; cited from earlier work"}, "[3]": {"biological_target": "bacterial b-glucuronidase (Escherichia coli, UniProt P05804)", "sequence (P05804 whole entry)": "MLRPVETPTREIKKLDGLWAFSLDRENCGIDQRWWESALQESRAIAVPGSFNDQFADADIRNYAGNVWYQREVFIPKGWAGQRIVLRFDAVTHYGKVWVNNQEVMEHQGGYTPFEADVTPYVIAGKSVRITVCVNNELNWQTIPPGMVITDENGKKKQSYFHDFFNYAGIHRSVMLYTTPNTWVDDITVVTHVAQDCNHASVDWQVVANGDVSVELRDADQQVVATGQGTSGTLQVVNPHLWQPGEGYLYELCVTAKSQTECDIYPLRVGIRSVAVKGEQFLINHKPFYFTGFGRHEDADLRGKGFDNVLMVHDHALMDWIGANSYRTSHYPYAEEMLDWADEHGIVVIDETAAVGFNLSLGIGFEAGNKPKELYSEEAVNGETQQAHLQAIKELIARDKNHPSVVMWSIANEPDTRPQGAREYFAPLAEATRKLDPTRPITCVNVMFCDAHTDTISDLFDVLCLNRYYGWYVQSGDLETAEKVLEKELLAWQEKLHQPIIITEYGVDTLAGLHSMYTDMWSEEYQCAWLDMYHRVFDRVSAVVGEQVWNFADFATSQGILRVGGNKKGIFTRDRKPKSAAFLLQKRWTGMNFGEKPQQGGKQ", "assay": "Inhibition of b-glucuronidase cleavage of 4-methylumbelliferyl-b-D-glucuronide by competitor b-D-glucuronides (FIG. 2)", "format": "biochemical", "conditions": "20 μM 4-methylumbelliferyl-b-D-glucuronide, result in words", "experimental": "FIG. 1 Kinetic measurements of 4-methylumbelliferylb-D-glucuronide cleavage by b-gluuronidase. In part A, 100 μl assays were performed in triplicate using 100 mM Tris-HCl buffer, pH 7.4, containing 10 mM MgCl2, 0.1 μg/ml b-gluuronidase and 5 (.box-solid.), 20 (.tangle-solidup.), and 100 (.circle-solid.) μM, 4-methylumbelliferyl-b-D-glucuronide. Reactions were started by the addition of enzyme, incubated for indicated times at ambient temperature and then quenched with 100 μl of 0.1 M Na2 CO3, pH 9.5, containing 0.1% CHAPS. Fluorescence intensity was measured with a Beacon fluorescent polarization instrument (PanVera Corporation, Madison, Wis.) in intensity mode, using excitation and emission filters of 360 nm and 440 nm, respectively, and slit widths set at 10 nm. Part B, assays were performed in duplicate for 20 min as above with the indicated amount of 4-methylumbelliferyl-b-D-glucuronide. 4-Methyumbelliferone concentration was determined from a calibration curve.\nFIG. 2 Inhibition curves. Assays were performed as described in the legend to FIG. 1B with 20 .quadrature.M 4-methylumbelliferyl-b-D-glucuronide and the indicated amount of competitor b-D-glucuronide. Fluorescence intensity due to 4-methylumbelliferyl-b-D-glucuronide cleavage, in the absence of a competitor was arbitrarily assigned as 100%. Competitors, α-napthyl b-D-glucuronide (.box-solid.), .quadrature.-trifluoromethylumbelliferyl-b-D-glucuronide (o), .quadrature.-estradiol 3-.quadrature.b-D-glucuronide) (.tangle-solidup.), p-acetominophenyl b-D-glucuronide (.circle-solid.), 5.quadrature.-androstane-3α, 17α-diol-11-one-17-carboxylic acid-3-(b-D-glucuronide) (.tangle-soliddn.) and UDPGA (.E-backward.) were dissolved in 100 mM Tris-HCl, containing 10 mM MgCl2, pH 7.5. Tetrahydrocortisone 3-b-D-glucuronide (.diamond-solid.) was prepared in DMSO. The DMSO in reaction mixtures was 0.1% or less.\nAssay Principle: Cleavage of 4-methylumbelliferyl b-D-glucuronide by bacterial b-glucuronidase generates the highly fluorescent compound, 4-methylumbelliferone. Diverse b-D-glucuronides act as competitors of b-glucuronidase, thus providing the basis of a coupled assay method for detection of glucuronide production by recombinant UGT isozymes. […] The 4-methylumbelliferyl b-D-glucuronide cleavage assay can easily be adapted to high throughput formats to detect the presence of b-D glucuronides generated using recombinant glycosyl transferase preparations.\nMethods are included in text and figure legends. b-D-glucuronidase (Part G-7396), α-napthyl b-D-glucuronide, b-trifluoromethylumbelliferyl b-D-glucuronide, b-estradiol 3-(b-D-glucuronide), p-acetominophenyl b-D-glucuronide, 5 .quadrature.-androstane-3α, 17α-diol-11-one-17-carboxilic acid-3-(b-D-glucuronide), UDPGA and 4-methylumbelliferone b-D-glucuronide were obtained from Sigma, St. Louis Mo. Tetrahydrocortisone 3-b-D-glucuronide was obtained from Molecular Probes, Eugene, Oreg. Recombinant control and UGT1A6 membrane preparations were generated at PanVera Corporation and are commercially available from PanVera, Madison Wis. All other reagents were analytical grade or better and purchased from a variety of commercial sources.\nIn order to show the feasibility of developing a high throughput inhibition assay, we examined the potential of a variety of structurally dissimilar commercially available b-D-glucuronides to act as inhibitors for the cleavage of 4-methylumbelliferyl-b-D-glucuronide. […]"}, "recombinant human UGT1A6": {"biological_target": "T1, recombinant human UGT1A6 (Homo sapiens, UniProt P19224)", "T1 sequence (P19224 27-532)": "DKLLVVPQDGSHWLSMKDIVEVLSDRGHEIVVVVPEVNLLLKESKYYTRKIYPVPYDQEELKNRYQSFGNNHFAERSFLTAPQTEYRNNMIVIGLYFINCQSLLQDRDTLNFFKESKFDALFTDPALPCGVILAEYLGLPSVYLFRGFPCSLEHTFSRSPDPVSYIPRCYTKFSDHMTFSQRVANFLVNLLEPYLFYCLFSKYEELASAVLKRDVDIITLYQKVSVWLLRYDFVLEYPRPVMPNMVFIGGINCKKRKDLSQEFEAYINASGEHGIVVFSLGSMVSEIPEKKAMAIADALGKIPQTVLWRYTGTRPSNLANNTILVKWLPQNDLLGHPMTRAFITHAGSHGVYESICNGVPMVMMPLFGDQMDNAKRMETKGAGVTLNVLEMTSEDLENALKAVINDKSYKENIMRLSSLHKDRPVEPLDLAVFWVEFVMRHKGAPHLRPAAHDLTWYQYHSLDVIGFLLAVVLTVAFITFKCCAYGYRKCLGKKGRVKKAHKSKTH", "assay": "Coupled assay: extracted residues of UGT1A6 / α-naphthol incubation added to b-glucuronidase fluorescence assay (FIG. 3A)", "format": "biochemical", "excerpt": "All other reagents were analytical grade or better and purchased from a variety of commercial sources."}, "UGT1A6": {"system": "UGT1A6", "assay": "Accumulation of naphthyl glucuronide in UGT1A6 assay using [14C] UDPGA", "format": "in vitro ADME, human", "conditions": "parallel experiment using [14C] UDPGA, data not shown", "experimental": "Two approaches were taken to test the feasibility of coupling the UGT-dependent production of glucuronides to inhibition of fluorescent product formation by b-D-glucuronidase. The first involved extracting the UGT reaction products and adding them to the b-D-glucuronidase fluorescence assay reagents; the second involved adding the b-D-glucuronidase reaction components directly to the quenched UGT reaction. In the first approach, α-naphthyl b-D-glucuronide was generated in an incubation with recombinant human UGT1A6 and α-naphthol. Following extraction, 4-methylumbelliferyl-b-D-glucuronide assay reagents were added to the extracted, dried reaction residues. […] Inhibition of 4-methylumbelliferyl-b-D-glucuronide cleavage was dependent on the incubation time of the UGT1A6 assay, presumably reflecting increased .quadrature.-naphthyl glucuronide accumulation."}}}
{"smiles": "CN1CC[C@]23c4c5ccc(O[C@@H]6O[C@H](C(=O)O)[C@@H](O)[C@H](O)[C@H]6O)c4O[C@H]2[C@@H](O)C=C[C@H]3[C@H]1C5", "note": "[3-glucuronide]", "values": [{"measurement": "activity towards morphine", "setting": "[1]", "value": "morphine antagonist"}]}
{"smiles": "CN1CC[C@]23c4c5ccc(O)c4O[C@H]2[C@@H](O[C@@H]2O[C@H](C(=O)O)[C@@H](O)[C@H](O)[C@H]2O)C=C[C@H]3[C@H]1C5", "note": "[6-glucuronide of morphine]", "values": [{"measurement": "analgesic potency relative to the parent compound morphine", "setting": "[2]", "value": "more potent analgesic than the parent compound"}]}
{"smiles": "CCc1c2c(nc3ccc(OC(=O)N4CCC(N5CCCCC5)CC4)cc13)-c1cc3c(c(=O)n1C2)COC(=O)[C@]3(O)CC", "note": "[Irinotecan]", "values": [{"measurement": "toxicity associated with low expression of UGT1A1", "setting": "UGT1A1", "value": "associated with the toxicity"}]}
{"smiles": "O=C(O)[C@H]1O[C@H](OP(=O)(O)OP(=O)(O)OC[C@H]2O[C@@H](n3ccc(=O)[nH]c3=O)[C@H](O)[C@@H]2O)[C@H](O)[C@@H](O)[C@@H]1O", "note": "[Uridine 5'-diphosphoglucuronic acid]", "values": [{"measurement": "inhibition of 4-methylumbelliferyl-b-D-glucuronide cleavage (production of 4-methylumbelliferone) by b-glucuronidase", "setting": "[3]", "value": "not an effective competitor over the range tested"}]}
{"smiles": "C[C@]12CC[C@@H]3c4ccc(O[C@@H]5O[C@H](C(=O)O)[C@@H](O)[C@H](O)[C@H]5O)cc4CC[C@H]3[C@@H]1CC[C@@H]2O", "note": "[b-estradiol-3-(b-D-glucuronide), b-estradiol 3-(b-D-glucuronide)]", "values": [{"measurement": "inhibition of 4-methylumbelliferyl-b-D-glucuronide cleavage (production of 4-methylumbelliferone) by b-glucuronidase", "setting": "[3]", "value": "strongest"}, {"measurement": "inhibition of 4-methylumbelliferyl-b-D-glucuronide cleavage (production of 4-methylumbelliferone) by b-glucuronidase", "setting": "[3]; listed as estradiol b-D-glucuronide", "value": "More potent inhibitors"}]}
{"smiles": "Oc1cccc2ccccc12", "note": "[α-naphthol]", "values": [{"measurement": "interference of aglycone with the 4-methylumbelliferyl-b-D-glucuronide cleavage assay", "setting": "recombinant human UGT1A6", "value": "does not interfere non-specifically"}]}
{"smiles": "O=C(O)[C@H]1O[C@@H](Oc2cccc3ccccc23)[C@H](O)[C@@H](O)[C@@H]1O", "note": "[α-naphthyl b-D-glucuronide]", "values": [{"measurement": "accumulation of naphthyl glucuronide in the UGT1A6 assay", "setting": "UGT1A6", "value": "independently verified"}, {"measurement": "inhibition of 4-methylumbelliferyl-b-D-glucuronide cleavage by extracted residues of UGT1A6 assay", "setting": "recombinant human UGT1A6; FIG. 3A, 0.6 mg/ml UGT1A6, 2 mM UDPGA, 0.6 mM α-naphthol, 37° C, ethyl acetate extraction, vs control microsomes", "value": "inhibited 4-methylumbelliferyl-b-D-glucuronide cleavage"}, {"measurement": "inhibition of 4-methylumbelliferyl-b-D-glucuronide cleavage (production of 4-methylumbelliferone) by b-glucuronidase", "setting": "[3]", "value": "weakest"}, {"measurement": "inhibition of 4-methylumbelliferyl-b-D-glucuronide cleavage (production of 4-methylumbelliferone) by b-glucuronidase", "setting": "[3]; listed as α-naphthol b-D-glucuronide", "value": "weak competitive inhibitor"}]}
